According to ChEMBL document CHEMBL4229572, “VU6007477, a Novel M1 PAM Based on a Pyrrolo[2,3-b]pyridine Carboxamide Core Devoid of Cholinergic Adverse Events” (ACS Med Chem Lett, 2018):
Substitutions are numbered along the chain they refer to. pEC50: −log10 of the molar value.

Assays:
[1] = biological target: T1, Muscarinic acetylcholine receptor M1 (Rattus norvegicus, UniProt P08482); test: Agonist activity at rat M1 receptor expressed in CHO cells assessed as increase in calcium mobilization measured after 2.5 mins by Fluo-4-AM dye based assay; format: functional, cell-based
T1 sequence (P08482 whole entry): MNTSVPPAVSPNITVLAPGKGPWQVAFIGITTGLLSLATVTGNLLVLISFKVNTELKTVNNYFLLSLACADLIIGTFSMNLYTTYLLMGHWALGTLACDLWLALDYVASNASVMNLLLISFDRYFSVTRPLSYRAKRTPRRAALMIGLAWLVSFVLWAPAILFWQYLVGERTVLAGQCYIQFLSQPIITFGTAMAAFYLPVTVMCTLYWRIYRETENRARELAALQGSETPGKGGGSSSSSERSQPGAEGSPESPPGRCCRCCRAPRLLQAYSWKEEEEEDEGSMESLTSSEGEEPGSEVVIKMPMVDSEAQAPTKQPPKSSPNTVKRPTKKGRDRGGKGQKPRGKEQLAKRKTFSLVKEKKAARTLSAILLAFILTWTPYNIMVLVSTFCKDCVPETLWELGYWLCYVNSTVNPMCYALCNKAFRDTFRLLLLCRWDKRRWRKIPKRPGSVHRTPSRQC

[2] = biological target: T2, Muscarinic acetylcholine receptor M1 (Homo sapiens) (UniProt P11229); test: (§1) Positive allosteric modulation of human M1 receptor expressed in CHO cells assessed as increase in acetylcholine-induced calcium mobilization pretreated for 2.5 mins followed by acetylcholine addition and measured after 1 min by Fluo-4-AM dye based assay; format: functional, cell-based
T2 sequence (whole entry): T1 sequence (P08482 whole entry) with V5A, S254T, S309P, K320R, G337A, V413I

[3] = biological target: T3, Muscarinic acetylcholine receptor M1 (Homo sapiens, UniProt P11229); test: as §1; format: functional, cell-based
T3 sequence (P11229 whole entry): T1 sequence (P08482 whole entry) with V5A, S254T, S309P, K320R, G337A, V413I

[4] = Protein binding in rat plasma assessed as unbound fraction at 5 uL measured after 4 hrs by LC-MS/MS based equilibrium dialysis method; format: ADME, cell-free
[5] = Protein binding in human plasma assessed as unbound fraction at 5 uL measured after 4 hrs by LC-MS/MS based equilibrium dialysis method; format: ADME, cell-free
[6] = Total brain to plasma partition coefficient, Kp in cannulated Sprague-Dawley rat at 0.2 mg/kg, iv administered via jugular vein as cassette dose measured after 0.25 hrs by LC-MS/MS analysis; format: ADME, organism-based; details: Sprague-Dawley, brain and plasma
[7] = Ratio of unbound brain to plasma concentration in cannulated Sprague-Dawley rat at 0.2 mg/kg, iv administered via jugular vein as cassette dose measured after 0.25 hrs by LC-MS/MS analysis; format: ADME, organism-based; details: Sprague-Dawley, brain and plasma, read-out: K(p,uu,brain)
[8] = test system: Mus musculus; test: Cholinergic toxicity in C57BL/6J mouse assessed as induction of seizure activity at 100 mg/kg, ip measured within 30 mins; format: organism-based; details: in vivo, 0.5 h
[9] = Drug level in C57BL/6J mouse brain at 100 mg/kg, ip measured after 1 hr; format: ADME, organism-based; details: read-out: Drug uptake
[10] = biological target: Muscarinic acetylcholine receptor M3 (Homo sapiens, UniProt P20309); test: Positive allosteric modulation of human M3 receptor expressed in CHO cells assessed as increase in acetylcholine-induced calcium mobilization pretreated for 2.5 mins followed by acetylcholine addition and measured after 1 min by Fluo-4-AM dye based assay; format: functional, cell-based
[11] = biological target: T4, Muscarinic acetylcholine receptor M4 (Homo sapiens, UniProt P08173); test: Positive allosteric modulation of human M4 receptor expressed in CHO cells co-expressing Gqi5 assessed as increase in acetylcholine-induced calcium mobilization pretreated for 2.5 mins followed by acetylcholine addition and measured after 1 min by Fluo-4-AM dye based assay; format: functional, cell-based
T4 sequence (P08173 whole entry): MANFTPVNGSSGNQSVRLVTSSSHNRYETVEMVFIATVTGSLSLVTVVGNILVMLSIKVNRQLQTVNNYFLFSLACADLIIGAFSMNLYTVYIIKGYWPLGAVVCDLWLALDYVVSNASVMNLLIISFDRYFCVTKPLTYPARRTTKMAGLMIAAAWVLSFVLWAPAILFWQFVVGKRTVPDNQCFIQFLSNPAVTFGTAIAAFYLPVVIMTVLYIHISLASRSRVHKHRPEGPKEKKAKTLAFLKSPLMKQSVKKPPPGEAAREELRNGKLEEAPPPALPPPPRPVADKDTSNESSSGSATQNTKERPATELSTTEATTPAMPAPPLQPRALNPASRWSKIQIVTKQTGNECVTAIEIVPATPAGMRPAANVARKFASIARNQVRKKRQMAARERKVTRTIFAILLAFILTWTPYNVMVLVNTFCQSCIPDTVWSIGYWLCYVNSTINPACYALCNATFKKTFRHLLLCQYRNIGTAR

[12] = biological target: T5, Muscarinic acetylcholine receptor M5 (Homo sapiens, UniProt P08912); test: Positive allosteric modulation of human M5 receptor expressed in CHO cells assessed as increase in acetylcholine-induced calcium mobilization pretreated for 2.5 mins followed by acetylcholine addition and measured after 1 min by Fluo-4-AM dye based assay; format: functional, cell-based
T5 sequence (P08912 whole entry): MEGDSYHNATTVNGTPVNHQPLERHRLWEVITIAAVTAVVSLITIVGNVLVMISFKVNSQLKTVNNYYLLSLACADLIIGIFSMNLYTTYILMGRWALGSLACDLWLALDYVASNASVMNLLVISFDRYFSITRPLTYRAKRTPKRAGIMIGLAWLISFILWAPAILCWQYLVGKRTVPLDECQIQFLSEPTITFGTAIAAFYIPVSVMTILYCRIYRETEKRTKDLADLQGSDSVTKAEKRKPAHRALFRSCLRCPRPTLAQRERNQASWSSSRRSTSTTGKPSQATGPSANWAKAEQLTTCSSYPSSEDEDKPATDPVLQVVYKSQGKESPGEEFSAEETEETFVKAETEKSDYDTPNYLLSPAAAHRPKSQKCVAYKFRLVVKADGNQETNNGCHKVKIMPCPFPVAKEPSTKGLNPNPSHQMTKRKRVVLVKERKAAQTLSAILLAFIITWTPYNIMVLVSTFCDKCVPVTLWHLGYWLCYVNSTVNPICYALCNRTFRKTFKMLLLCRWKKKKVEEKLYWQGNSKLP

[13] = test system: P-gp; test: Substrate activity at P-gp (unknown origin) assessed as apparent permeability; format: ADME; details: human, not told

Muscarinic acetylcholine receptor M3, sequence (P20309 whole entry): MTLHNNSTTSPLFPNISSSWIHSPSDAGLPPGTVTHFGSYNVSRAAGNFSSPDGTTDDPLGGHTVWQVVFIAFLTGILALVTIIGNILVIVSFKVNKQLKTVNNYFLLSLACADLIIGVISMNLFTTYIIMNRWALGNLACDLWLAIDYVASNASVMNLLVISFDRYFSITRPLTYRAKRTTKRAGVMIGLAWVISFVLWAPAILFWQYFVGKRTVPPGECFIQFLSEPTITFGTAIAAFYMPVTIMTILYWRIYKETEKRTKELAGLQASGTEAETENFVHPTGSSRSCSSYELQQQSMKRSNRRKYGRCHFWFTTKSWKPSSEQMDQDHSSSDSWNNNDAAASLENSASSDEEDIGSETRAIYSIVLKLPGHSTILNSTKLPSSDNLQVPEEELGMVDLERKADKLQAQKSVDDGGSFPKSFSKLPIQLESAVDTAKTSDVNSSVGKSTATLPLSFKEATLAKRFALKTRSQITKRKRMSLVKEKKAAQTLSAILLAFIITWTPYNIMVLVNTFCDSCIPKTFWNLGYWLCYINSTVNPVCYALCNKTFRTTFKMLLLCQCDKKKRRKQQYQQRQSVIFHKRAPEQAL

- pEC50 ([1]; cho, read-out: EC50): < 5.00
- EC50 ([1]; read-out: pEC50 (converted)): > 10 µM
- %max [2]: 84%
- pEC50 [3]: 6.49
- fraction unbound at 4 h, 5 uL [4]: 0.06
- fraction unbound at 4 h, 5 uL [5]: 0.04
- Kp at 0.25 h [6]: 0.28
- Kp uu at 0.25 h [7]: 0.32
- concentration at 1 h [9]: 7 µM
- pEC50 [10]: < 4.52
- pEC50 [11]: < 4.52
- pEC50 [12]: < 4.52
- Papp [13]: 12 ×10⁻⁶ cm/s
Compound: Cn1cc(-c2ccc(Cc3cc(C(=O)NC4CCOCC4)nc4c3ccn4C)cn2)cn1
- Activity [8]: Non-Toxic
